# Test results: ChEMBL document CHEMBL4028802, “DILIrank: the largest reference drug list ranked by the risk for developing drug-induced liver injury in humans” (Drug Discov Today, 2016)
# Columns and labels:
# Homo sapiens [1] = organism: Homo sapiens; assay: Liver toxicity in human assessed as induction of drug-induced liver injury by measuring severity class index
# Homo sapiens [2] = organism: Homo sapiens; assay: Liver toxicity in human assessed as induction of drug-induced liver injury by measuring verified drug-induced liver injury concern status
# Throughout, for DILI severity class: key of the grades not given here.
Structure (SMILES),DILI_severity_class (Homo sapiens [1]),DILI_Concern (Homo sapiens [2])
CCOC(=O)[C@H](CCc1ccccc1)N[C@@H](C)C(=O)N1[C@H](C(=O)O)C[C@H]2CCCC[C@@H]21 [TRANDOLAPRIL],4,Less-Dili-Concern
CN1C(=O)C(O)N=C(c2ccccc2)c2cc(Cl)ccc21 (stereo unspecified) [TEMAZEPAM],3,Ambiguous-Dili-Concern
CC(=O)Nc1c(I)c(NC(C)=O)c(I)c(C(=O)O)c1I [DIATRIZOIC ACID],0,No-Dili-Concern
Cc1ccc(Nc2c(F)cccc2Cl)c(CC(=O)O)c1 [LUMIRACOXIB],8,Most-Dili-Concern
CC1CNc2c(cccc2S(=O)(=O)N[C@@H](CCCNC(=N)N)C(=O)N2CC[C@@H](C)C[C@@H]2C(=O)O)C1 (stereo partly specified) [ARGATROBAN],0,No-Dili-Concern
CO/N=C(\C(=O)N[C@@H]1C(=O)N2C(C(=O)O)=C(COC(N)=O)CS[C@H]12)c1ccco1 [CEFUROXIME],5,Less-Dili-Concern
COC(=O)C1=C(C)NC(C)=C(C(=O)OCC(C)C)C1c1ccccc1[N+](=O)[O-] (stereo unspecified) [NISOLDIPINE],3,Ambiguous-Dili-Concern
COc1cc2nc(N3CCN(C(=O)c4ccco4)CC3)nc(N)c2cc1OC [PRAZOSIN],3,Ambiguous-Dili-Concern
CC(C)(Oc1ccc(C(=O)c2ccc(Cl)cc2)cc1)C(=O)O [FENOFIBRIC ACID],2,Ambiguous-Dili-Concern
CNCCCC12CCC(c3ccccc31)c1ccccc12 [MAPROTILINE],5,Ambiguous-Dili-Concern
N=C(N)NCCN1CCCCCCC1 [GUANETHIDINE],0,No-Dili-Concern
CO[C@H]1C[C@@H]2CC[C@@H](C)[C@@](O)(O2)C(=O)C(=O)N2CCCC[C@H]2C(=O)O[C@H]([C@H](C)C[C@@H]2CC[C@@H](O)[C@H](OC)C2)CC(=O)[C@H](C)/C=C(\C)[C@@H](O)[C@@H](OC)C(=O)[C@H](C)C[C@H](C)/C=C/C=C/C=C/1C [SIROLIMUS],8,Less-Dili-Concern
CC(C)(C)NC(=O)[C@@H]1CN(Cc2cccnc2)CCN1C[C@@H](O)C[C@@H](Cc1ccccc1)C(=O)N[C@H]1c2ccccc2C[C@H]1O.O,8,Ambiguous-Dili-Concern
CCN1C(=O)NC(c2ccccc2)C1=O (stereo unspecified) [ETHOTOIN],3,Ambiguous-Dili-Concern
c1cnc2cc3c(cc2n1)[C@@H]1CNC[C@H]3C1 [VARENICLINE],2,Less-Dili-Concern
Nc1ncnc2c1ncn2CCOCP(=O)(O)O [ADEFOVIR],2,Less-Dili-Concern
Clc1ccc2nsnc2c1NC1=NCCN1 [TIZANIDINE],8,Most-Dili-Concern
Cc1ncc2n1-c1ccc(Cl)cc1C(c1ccccc1F)=NC2 [MIDAZOLAM],0,No-Dili-Concern
C[N+]1(CC2CC2)CC[C@]23c4c5ccc(O)c4O[C@H]2C(=O)CC[C@@]3(O)[C@H]1C5.[Br-] (stereo partly specified) [METHYLNALTREXONE BROMIDE],0,No-Dili-Concern
CCc1oc2ccccc2c1C(=O)c1cc(Br)c(O)c(Br)c1 [BENZBROMARONE],8,Most-Dili-Concern

Structure (SMILES),DILI_severity_class (Homo sapiens [1]),DILI_Concern (Homo sapiens [2])
Cn1nnc2c(C(N)=O)ncn2c1=O [TEMOZOLOMIDE],4,Less-Dili-Concern
CCCNCC(O)COc1ccccc1C(=O)CCc1ccccc1 (stereo unspecified) [PROPAFENONE],3,Less-Dili-Concern
CN(C)c1nc(N(C)C)nc(N(C)C)n1 [ALTRETAMINE],2,Ambiguous-Dili-Concern
C[C@H](Cc1cc2c(c(C(N)=O)c1)N(CCCO)CC2)NCCOc1ccccc1OCC(F)(F)F [SILODOSIN],3,Ambiguous-Dili-Concern
O=C(O)c1cc(-c2ccccc2)nc2ccccc12 [CINCHOPHEN],8,Most-Dili-Concern
Cc1ccc(C(=O)c2ccc(CC(=O)O)n2C)cc1 [TOLMETIN],3,Less-Dili-Concern
Cc1onc(-c2ccccc2)c1-c1ccc(S(N)(=O)=O)cc1 [VALDECOXIB],3,Less-Dili-Concern
C[C@H]1[C@H](NC(=O)/C(=N\OC(C)(C)C(=O)O)c2csc(N)n2)C(=O)N1S(=O)(=O)O [AZTREONAM],5,Ambiguous-Dili-Concern
NC(=O)N1c2ccccc2C=Cc2ccccc21 [CARBAMAZEPINE],7,Most-Dili-Concern
C=CC1=C(C(=O)O)N2C(=O)[C@@H](NC(=O)/C(=N\OCC(=O)O)c3csc(N)n3)[C@H]2SC1 [CEFIXIME],4,Ambiguous-Dili-Concern
CC[C@@H]([C@H](C)O)n1ncn(-c2ccc(N3CCN(c4ccc(OC[C@@H]5CO[C@@](Cn6cncn6)(c6ccc(F)cc6F)C5)cc4)CC3)cc2)c1=O [POSACONAZOLE],8,Ambiguous-Dili-Concern
Cc1nnc(C(=O)NC(C)(C)c2nc(C(=O)NCc3ccc(F)cc3)c(O)c(=O)n2C)o1,7,Most-Dili-Concern
CC(C(=O)O)c1cccc(C(=O)c2ccccc2)c1 (stereo unspecified) [KETOPROFEN],3,Less-Dili-Concern
CCn1cc(C(=O)O)c(=O)c2ccc(C)nc21 [NALIDIXIC ACID],3,Ambiguous-Dili-Concern
COC(=O)Nc1nc2ccc(C(=O)c3ccccc3)cc2[nH]1 [MEBENDAZOLE],3,Less-Dili-Concern
CN(C)C/C=C(/c1ccc(Br)cc1)c1cccnc1 [ZIMELDINE],8,Most-Dili-Concern
CCCCC1=NC2(CCCC2)C(=O)N1Cc1ccc(-c2ccccc2-c2nnn[nH]2)cc1 [IRBESARTAN],5,Less-Dili-Concern
CC(C)C(=O)Oc1ccc(CO)cc1[C@H](CCN(C(C)C)C(C)C)c1ccccc1 [FESOTERODINE],0,No-Dili-Concern
C[C@@H](Cc1ccccc1)N(C)Cc1ccccc1 [BENZPHETAMINE],0,No-Dili-Concern
CCCc1cc(=O)[nH]c(=S)[nH]1 [PROPYLTHIOURACIL],8,Most-Dili-Concern

Structure (SMILES),DILI_severity_class (Homo sapiens [1]),DILI_Concern (Homo sapiens [2])
CC[C@]1(O)C[C@@H]2CN(CCc3c([nH]c4ccccc34)[C@@](C(=O)OC)(c3cc4c(cc3OC)N(C)[C@H]3[C@@](O)(C(=O)OC)[C@H](OC(C)=O)[C@]5(CC)C=CCN6CC[C@]43[C@@H]65)C2)C1 [VINBLASTINE],0,No-Dili-Concern
CC(C)c1nc(CN(C)C(=O)N[C@H](C(=O)N[C@@H](Cc2ccccc2)C[C@H](O)[C@H](Cc2ccccc2)NC(=O)OCc2cncs2)C(C)C)cs1 [RITONAVIR],8,Most-Dili-Concern
CO/N=C1\CN(c2nc3c(cc2F)c(=O)c(C(=O)O)cn3C2CC2)CC1CN (stereo unspecified) [GEMIFLOXACIN],3,Less-Dili-Concern
COc1c(N2C[C@@H]3CCCN[C@@H]3C2)c(F)cc2c(=O)c(C(=O)O)cn(C3CC3)c12 [MOXIFLOXACIN],8,Less-Dili-Concern
COc1cccc2c1C(=O)c1c(O)c3c(c(O)c1C2=O)C[C@@](O)(C(C)=O)C[C@@H]3O[C@H]1C[C@H](N)[C@H](O)[C@H](C)O1 [DAUNORUBICIN],0,No-Dili-Concern
CC(=O)Oc1cc(C(C)C)c(OCCN(C)C)cc1C [MOXISYLYTE],8,Most-Dili-Concern
NC(=O)c1cn(Cc2c(F)cccc2F)nn1 [RUFINAMIDE],3,Ambiguous-Dili-Concern
CCN1CCN(C(=O)N[C@@H](C(=O)N[C@@H]2C(=O)N3C(C(=O)O)=C(CSc4nnnn4C)CS[C@H]23)c2ccc(O)cc2)C(=O)C1=O [CEFOPERAZONE],3,Less-Dili-Concern
O=c1[nH]c(=O)n([C@@H]2O[C@H](CO)[C@@H](O)[C@@H]2F)cc1I [FIALURIDINE],8,Most-Dili-Concern
CN1CC[C@]23c4c5ccc(O)c4O[C@H]2C(=O)CC[C@@]3(O)[C@H]1C5 [OXYMORPHONE],0,No-Dili-Concern
CC(C)(C(=O)c1cccnc1)c1cccnc1 [METYRAPONE],0,No-Dili-Concern
O=C1NC(=O)C(c2ccccc2)(c2ccccc2)N1 [PHENYTOIN],8,Most-Dili-Concern
NC(=O)c1ncn([C@@H]2O[C@H](CO)[C@@H](O)[C@H]2O)n1 [RIBAVIRIN],7,Ambiguous-Dili-Concern
CO[C@H]1C[C@@H]2CC[C@@H](C)[C@@](O)(O2)C(=O)C(=O)N2CCCC[C@H]2C(=O)O[C@H]([C@H](C)C[C@@H]2CC[C@@H](OCCO)[C@H](OC)C2)CC(=O)[C@H](C)/C=C(\C)[C@@H](O)[C@@H](OC)C(=O)[C@H](C)C[C@H](C)/C=C/C=C/C=C/1C [EVEROLIMUS],4,Ambiguous-Dili-Concern
CCN(CC)CCNC(=O)c1cc(Cl)c(N)cc1OC [METOCLOPRAMIDE],5,Less-Dili-Concern
CCc1oc2ccccc2c1C(=O)c1cc(I)c(O)c(I)c1 [BENZIODARONE],8,Most-Dili-Concern
Cc1[nH]c(=O)c(C#N)cc1-c1ccncc1 [MILRINONE],3,Ambiguous-Dili-Concern
CC(CN(C)C)CN1c2ccccc2CCc2ccccc21 (stereo unspecified) [TRIMIPRAMINE],2,Ambiguous-Dili-Concern
